In the OPERA property sets (Mansouri et al. 2018):

| logP | Compound |
| --- | --- |
| 2.14 | O=C1CC(Oc2ccc(C(=O)c3ccccc3)cc2)N1 (stereo not given) |
| 2.66 | O=C1CC(Oc2cccc3ccccc23)N1 (stereo not given) |
| 2.64 | O=C1CC(Sc2ccc3ccccc3c2)N1 (stereo not given) |
| 2.61 | O=C1CC(Oc2ccc(-c3ccccc3)cc2)N1 (stereo not given) |
| 2.56 | O=C1CC(Oc2ccc(C(=O)C=Cc3ccccc3)cc2)N1 (stereo not given) |
| 2.31 | O=C1CC(Sc2ccc(Cl)cc2)N1 (stereo not given) |
| 1.83 | O=C1CC(Oc2ccccc2C(=O)c2ccccc2)N1 (stereo not given) |
| 2.29 | O=C1CC(Oc2ccc3ccccc3c2)N1 (stereo not given) |
| 3.3 | CCOC(=O)CN1C(=O)CC1Oc1ccc(C(=O)C=Cc2ccccc2)cc1 (stereo not given) |
| 2.8 | CCOC(=O)CN1C(=O)CC1Oc1ccc2ccccc2c1 (stereo not given) |
| 2.62 | O=C1CC(Sc2ccccc2C(=O)OCc2ccccc2)N1 (stereo not given) |
| 2.83 | O=C1CC(Oc2cccc(C(=O)OCc3ccccc3)c2)N1 (stereo not given) |
| 3 | CCOC(=O)CN1C(=O)CC1Oc1ccc(C(=O)c2ccccc2)cc1 (stereo not given) |
| 3.6 | CC(C)(C)OC(=O)CN1C(=O)CC1Oc1ccc2ccccc2c1 (stereo not given) |
| 3.4 | CCOC(=O)CN1C(=O)CC1Sc1ccc2ccccc2c1 (stereo not given) |
